Test [1] deals with human Factor XIa (Homo sapiens, UniProt P03951). Briefly: biochemical. To be noted: purified human Factor XIa, substrate S-2366, HEPES buffer pH 7.4.
The target of test [2] is human plasma kallikrein (Homo sapiens, UniProt P03952). Description: biochemical. The settings on record: purified human plasma kallikrein, substrate S-2302, sodium phosphate buffer pH 7.5.

Counter-ions that a name gives are not always drawn.

human plasma kallikrein, sequence (P03952 391-638 limits assumed): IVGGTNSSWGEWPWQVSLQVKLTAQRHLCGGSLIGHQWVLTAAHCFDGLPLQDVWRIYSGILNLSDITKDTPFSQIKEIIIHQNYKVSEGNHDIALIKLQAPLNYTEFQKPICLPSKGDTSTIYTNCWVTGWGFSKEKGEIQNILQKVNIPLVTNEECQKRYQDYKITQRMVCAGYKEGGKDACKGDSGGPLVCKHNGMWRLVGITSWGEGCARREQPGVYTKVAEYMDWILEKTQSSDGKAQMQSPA
human plasma kallikrein, sequence (P03952 20-390 partner limits assumed): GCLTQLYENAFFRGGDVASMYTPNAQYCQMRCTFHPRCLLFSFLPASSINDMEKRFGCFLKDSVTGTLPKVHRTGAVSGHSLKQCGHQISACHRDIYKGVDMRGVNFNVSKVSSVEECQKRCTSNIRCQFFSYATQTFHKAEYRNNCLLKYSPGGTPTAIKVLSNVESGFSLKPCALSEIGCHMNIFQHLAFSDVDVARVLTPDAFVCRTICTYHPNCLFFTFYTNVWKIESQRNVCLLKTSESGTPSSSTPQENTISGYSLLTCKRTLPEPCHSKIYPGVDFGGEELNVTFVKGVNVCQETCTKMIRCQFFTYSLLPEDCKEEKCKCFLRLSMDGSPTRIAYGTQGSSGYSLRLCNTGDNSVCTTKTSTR
human Factor XIa, sequence (P03951 388-625 limits assumed): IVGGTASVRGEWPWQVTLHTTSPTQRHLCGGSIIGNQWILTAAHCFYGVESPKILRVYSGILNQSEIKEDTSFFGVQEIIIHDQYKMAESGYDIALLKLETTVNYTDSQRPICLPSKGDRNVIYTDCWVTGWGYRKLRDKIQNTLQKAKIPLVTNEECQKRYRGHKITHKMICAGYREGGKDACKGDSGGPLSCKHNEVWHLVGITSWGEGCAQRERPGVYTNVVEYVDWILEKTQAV
human Factor XIa, sequence (P03951 19-387 partner limits assumed): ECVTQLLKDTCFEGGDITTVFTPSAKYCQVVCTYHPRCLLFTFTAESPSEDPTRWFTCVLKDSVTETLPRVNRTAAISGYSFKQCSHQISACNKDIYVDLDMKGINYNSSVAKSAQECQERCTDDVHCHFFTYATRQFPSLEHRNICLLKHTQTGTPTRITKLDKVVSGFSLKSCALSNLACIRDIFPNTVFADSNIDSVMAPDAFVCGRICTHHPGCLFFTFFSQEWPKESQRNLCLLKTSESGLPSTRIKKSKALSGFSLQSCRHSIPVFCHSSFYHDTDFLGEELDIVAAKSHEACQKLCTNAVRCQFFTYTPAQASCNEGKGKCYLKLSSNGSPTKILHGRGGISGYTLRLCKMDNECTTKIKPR

As for `COc1ccc(-n2cc(C(F)(F)F)nn2)c(-c2cc(=O)n([C@H]3CCC[C@@H](C)C(=O)Nc4ccc(F)cc4-c4cncc3c4)cn2)c1` [Example 107, (10R,14S)-4-Fluoro-14-(4-{5-methoxy-2-[4-(trifluoromethyl)-1H-1,2,3-triazol-1-yl]phenyl}-6-oxo-1,6-dihydropyrimidin-1-yl)-10-methyl-8,17-diazatricyclo[13.3.1.0^2,7]nonadeca-1(19),2(7),3,5,15,17-hexaen-9-one], the Ki in test [1] is 142 nM; in test [2], 1400 nM.

As to `C[C@@H]1CCC[C@H](n2cnc(-c3cc(Cl)ccc3-n3cc(Cl)nn3)cc2=O)c2ccnc(c2)-c2ccc(C#N)cc2NC1=O` [Example 112, (10R,14S)-14-{4-[5-chloro-2-(4-chloro-1H-1,2,3-triazol-1-yl)phenyl]-6-oxo-1,6-dihydropyrimidin-1-yl}-10-methyl-9-oxo-8,18-diazatricyclo [13.3.1.0^2,7]nonadeca-1(19),2(7),3,5,15,17-hexaene-5-carbonitrile], the Ki in test [1] was 0.22 nM; in test [2] it was 19 nM.

Turning to `C[C@@H]1CCC[C@H](n2cnc(-c3c(-n4cc(Cl)nn4)ccc(Cl)c3F)cc2=O)c2cc(ccn2)-c2cc(F)ccc2NC1=O` [Example 142, (10R,14S)-14-{4-[3-chloro-6-(4-chloro-1H-1,2,3-triazol-1-yl)-2-fluorophenyl]-6-oxo-1,6-dihydropyrimidin-1-yl}-4-fluoro-10-methyl-8,16-diazatricyclo [13.3.1.0^2,7]nonadeca-1(19),2(7),3,5,15,17-hexaen-9-one trifluoroacetate], the inhibitory constant (Ki) came to 1 nM in test [1] and 7 nM in test [2].

`C[C@H]1CCC[C@H](n2cnc(-c3cc(Cl)ccc3-n3cc(C(F)(F)F)nn3)cc2=O)c2ccnc(c2)-c2cc(F)ccc2NC1=O` [Example 145, (10S,14S)-14-(4-{5-chloro-2-[4-(trifluoromethyl)-1H-1,2,3-triazol-1-yl]phenyl}-6-oxo-1,6-dihydropyrimidin-1-yl)-4-fluoro-10-methyl-8,18-diazatricyclo[13.3.1.0^2,7]nonadeca-1(19),2,4,6,15,17-hexaen-9-one]: the Ki in test [1] was 1.6 nM; in test [2], 100 nM.

The values are drawn from patent publication US9777001B2 (priority 2014, dated 2017).
